ChEMBL document CHEMBL4325935, “Molecular Basis for the Selective Inhibition of Histone Deacetylase 6 by a Mercaptoacetamide Inhibitor” (ACS Med Chem Lett, 2018)

Key:
[1] = target: T1, Histone deacetylase 8 (Homo sapiens, UniProt Q9BY41); assay: Inhibition of full length human N-terminal FLAG-tagged HDAC8 (1 to 377 residues) expressed in HEK293 cells preincubated for 15 mins followed by Boc-[trifluoroacetyl-Lys]-AMC substrate addition measured after 30 mins by fluorimetric method; format: cell-based
T1 sequence (Q9BY41 whole entry): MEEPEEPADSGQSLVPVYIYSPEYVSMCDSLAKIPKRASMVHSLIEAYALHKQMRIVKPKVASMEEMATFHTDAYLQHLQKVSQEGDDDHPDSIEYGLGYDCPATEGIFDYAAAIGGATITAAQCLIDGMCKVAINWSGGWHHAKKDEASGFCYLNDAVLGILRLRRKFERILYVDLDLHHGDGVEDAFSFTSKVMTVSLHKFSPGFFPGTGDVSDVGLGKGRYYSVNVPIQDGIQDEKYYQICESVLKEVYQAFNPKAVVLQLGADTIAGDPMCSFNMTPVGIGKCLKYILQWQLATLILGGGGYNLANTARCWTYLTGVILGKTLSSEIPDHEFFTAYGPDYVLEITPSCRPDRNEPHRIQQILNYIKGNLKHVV

[2] = target: T2, Protein deacetylase HDAC6 (Homo sapiens, UniProt Q9UBN7); assay: Inhibition of full length human N-terminal FLAG-tagged HDAC6 (1 to 1215 residues) expressed in HEK293 cells preincubated for 15 mins followed by acetyl-Gly-Ala-[acetyl-Lys]-AMC substrate addition measured after 30 mins by fluorimetric method; format: cell-based
T2 sequence (Q9UBN7 whole entry): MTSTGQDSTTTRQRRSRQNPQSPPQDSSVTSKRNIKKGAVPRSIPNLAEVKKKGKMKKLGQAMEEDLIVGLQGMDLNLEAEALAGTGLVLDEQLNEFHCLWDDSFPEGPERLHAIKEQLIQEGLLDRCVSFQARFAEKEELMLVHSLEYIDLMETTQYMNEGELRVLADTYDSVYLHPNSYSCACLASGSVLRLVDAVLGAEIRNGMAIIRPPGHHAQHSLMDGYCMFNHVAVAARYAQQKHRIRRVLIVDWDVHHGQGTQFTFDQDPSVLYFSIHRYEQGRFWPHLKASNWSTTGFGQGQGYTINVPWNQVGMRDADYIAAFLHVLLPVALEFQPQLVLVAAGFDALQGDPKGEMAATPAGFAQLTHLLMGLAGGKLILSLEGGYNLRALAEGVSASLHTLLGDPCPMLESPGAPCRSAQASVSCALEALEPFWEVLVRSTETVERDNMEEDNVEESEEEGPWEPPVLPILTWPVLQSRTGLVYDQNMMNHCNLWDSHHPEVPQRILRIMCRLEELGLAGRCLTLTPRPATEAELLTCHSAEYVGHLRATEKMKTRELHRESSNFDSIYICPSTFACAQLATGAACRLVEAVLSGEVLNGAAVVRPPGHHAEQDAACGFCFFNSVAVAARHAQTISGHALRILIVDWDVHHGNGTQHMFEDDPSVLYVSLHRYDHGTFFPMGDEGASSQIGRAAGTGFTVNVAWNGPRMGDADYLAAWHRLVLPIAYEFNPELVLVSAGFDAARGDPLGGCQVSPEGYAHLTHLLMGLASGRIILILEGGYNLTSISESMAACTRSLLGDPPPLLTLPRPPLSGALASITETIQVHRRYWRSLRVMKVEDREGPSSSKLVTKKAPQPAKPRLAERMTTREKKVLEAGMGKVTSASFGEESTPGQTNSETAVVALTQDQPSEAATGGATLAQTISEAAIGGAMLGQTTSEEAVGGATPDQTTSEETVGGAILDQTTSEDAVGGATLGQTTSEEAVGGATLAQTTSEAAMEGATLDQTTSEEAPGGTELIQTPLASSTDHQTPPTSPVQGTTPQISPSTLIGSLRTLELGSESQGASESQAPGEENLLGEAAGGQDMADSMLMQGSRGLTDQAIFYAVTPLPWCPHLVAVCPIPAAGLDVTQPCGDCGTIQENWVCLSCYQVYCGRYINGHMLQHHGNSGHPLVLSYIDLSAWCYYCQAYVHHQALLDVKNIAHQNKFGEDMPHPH

Work on `O=C(CS)NCCCCCn1ccc2cc(Cl)c(Cl)cc21` yielded an IC50 [1] of 12 µM and an IC50 [2] of 0.05 µM.
